According to patent US11952330B2, “Antibiotic ammonium compounds and methods for the treatment of bacterial infections” (priority 2019, dated 2024):

How the values were obtained:
[1] = system: S. aureus; assay: MIC by broth dilution, S. aureus; assay type: cell-based; conditions: Staphylococcus aureus; Mueller-Hinton broth, overnight 37° C.; Table 1; read-out: MIC (μg/mL) S. aureus
Protocol: (§1) The antibacterial efficacy of the ammonium compounds was assessed. Minimum inhibitory concentrations (MICs) were determined by broth dilution method. Dilutions of each compound, ranging from 1 μg/mL to 256 μg/mL (final concentrations) were prepared in Mueller-Hinton broth. Compound dilutions were added to wells of a 96-well plate, with the concentration of the compound increasing 2-fold by row. Each well contained 5×10^5 CFU/ml of target bacterium in a total volume of 100 μl. Plates were incubated overnight at 37° C. The following day, plates were evaluated for a visual change in growth to determine the MIC. The concentration value corresponding to the first row that no longer had visible bacterial growth, as evaluated by turbidity in the wells, was recorded as the MIC. MIC values were representative of at least biological duplicates, each made up of technical triplicates. The antibacterial efficacy of ammonium compounds in the presence of human plasma was assessed. Minimum inhibitory concentrations (MICs) were determined by broth dilution method. Dilutions of each compound, ranging from 1 μg/mL to 256 μg/mL (final concentrations) were prepared in Mueller-Hinton broth. For the plasma containing samples, compound dilutions were made in Mueller-Hinton broth and supplemented with 5% (final %) human plasma (esterases). Compound dilutions were added to wells of a 96-well plate, with the concentration of the compound increasing 2-fold by row. Each well contained 5×10^5 CFU/mL of target bacterium in a total volume of 100 μL. Plates were incubated overnight at 37° C. The following day, plates were evaluated for a visual change in growth to determine the MIC. The concentration value corresponding to the first row that no longer had visible bacterial growth, as evaluated by turbidity in the wells, was recorded as the MIC. MIC values were representative of at least biological duplicates, each made up of technical triplicates.

[2] = system: A. baumannii; assay: MIC by broth dilution, A. baumannii; assay type: cell-based; conditions: Acinetobacter baumannii; Mueller-Hinton broth, overnight 37° C.; Table 1; read-out: MIC (μg/mL) A. baumannii
Protocol: as §1

Compound	MIC [1] [µg/mL]	MIC [2] [µg/mL]
CCCCCCOc1ccccc1C(=O)Nc1ccc(C(=O)OCC[N+](CC)(CC)CCC)cc1.[Br-] [Compound 66, N,N-Diethyl-N-(2-((4-(2-(hexyloxy)benzamido)benzoyl)oxy)ethyl)propan-1-aminium bromide]	3 to 30	> 30
CCCCCCOc1ccccc1C(=O)Nc1ccc(C(=O)OCC[N+](CC)(CC)CCCC)cc1.[Br-] [Compound 67, N,N-Diethyl-N-(2-((4-(2-(hexyloxy)benzamido)benzoyl)oxy)ethyl)butan-1-aminium bromide]	3 to 30	> 30
CCCCCCCOc1ccccc1C(=O)Nc1ccc(C(=O)OCC[N+](CC)(CC)CCC)cc1.[Br-] [Compound 69, N,N-Diethyl-N-(2-((4-(2-(heptyloxy)benzamido)benzoyl)oxy)ethyl)propan-1-aminium bromide]	3 to 30	> 30
CCCCCCCOc1ccccc1C(=O)Nc1ccc(C(=O)OCC[N+](CC)(CC)CCCC)cc1.[Br-] [Compound 70, N,N-Diethyl-N-(2-((4-(2-(heptyloxy)benzamido)benzoyl)oxy)ethyl)butan-1-aminium bromide]	< 3	3 to 30
CCCCCCCOc1ccccc1C(=O)Nc1ccc(C(=O)OCC[N+](CC)(CC)CCCCC)cc1.[Br-] [Compound 71, N,N-Diethyl-N-(2-((4-(2-(heptyloxy)benzamido)benzoyl)oxy)ethyl)pentan-1-aminium bromide]	< 3	3 to 30
CCCCCCCCOc1ccccc1C(=O)Nc1ccc(C(=O)NC2CC[N+](C)(CCC)CC2)cc1.[Br-] (stereo not shown) [Compound 72, 1-Methyl-4-(4-(2-(octyloxy)benzamido)benzamido)-1-propylpiperidin-1-ium bromide]	3 to 30	> 30
CCCCCCCOc1ccccc1C(=O)Nc1ccc(C(=O)NC2CC[N+](C)(CCC)CC2)cc1.[Br-] (stereo not shown) [Compound 73, 4-(4-(2-(Heptyloxy)benzamido)benzamido)-1-methyl-1-propylpiperidin-1-ium bromide]	3 to 30	> 30
CCCCCCCCOc1ccccc1C(=O)Nc1ccc(C(=O)N(C)C2CC[N+](CC)(CCC)CC2)cc1.[Br-] (stereo not shown) [Compound 74, 1-Ethyl-4-(N-methyl-4-(2-(octyloxy)benzamido)benzamido)-1-propylpiperidin-1-ium bromide]	3 to 30	> 30
CCCCCCCCOc1ccccc1C(=O)Nc1ccc(C(=O)NC2CC[N+](CCC)(CCC)CC2)cc1.[Br-] [Compound 75, 4-(4-(2-(Octyloxy)benzamido)benzamido)-1,1-dipropylpiperidin-1-ium bromide]	3 to 30	> 30
CCCCCCCOc1ccccc1C(=O)Nc1ccc(C(=O)NC2CC[N+](CCC)(CCC)CC2)cc1.[Br-] [Compound 76, 4-(4-(2-(Heptyloxy)benzamido)benzamido)-1,1-dipropylpiperidin-1-ium bromide]	3 to 30	> 30
CCCCCCCOc1ccccc1C(=O)Nc1ccc(C(=O)NCC[N+](C)(CC)CC)cc1.[Br-] [Compound 77, N,N-Diethyl-2-(4-(2-(heptyloxy)benzamido)benzamido)-N-methylethan-1-aminium bromide]	3 to 30	> 30
CCCCCCCCOc1ccccc1C(=O)Nc1ccc(S(=O)(=O)NCC[N+](C)(CC)CC)cc1.[Br-] [Compound 78, N,N-Diethyl-N-methyl-2-((4-(2-(octyloxy)benzamido)phenyl)sulfonamido)ethan-1-aminium bromide]	3 to 30	3 to 30
CCCCCCCOc1ccccc1C(=O)Nc1ccc(S(=O)(=O)NCC[N+](C)(CC)CC)cc1.[Br-] [Compound 79, N,N-Diethyl-2-((4-(2-(heptyloxy)benzamido)phenyl)sulfonamido)-N-methylethan-1-aminium bromide]	3 to 30	> 30
CCCCCCCCOc1ccccc1C(=O)Nc1ccc(C(=O)NC2CC[N+](C)(CC)CC2)cc1.[Br-] (stereo not shown) [Compound 80, 1-Ethyl-1-methyl-4-(4-(2-(octyloxy)benzamido)benzamido)piperidin-1-ium bromide]	3 to 30	> 30
